In the assay the target is human active recombinant p38α-6His tagged (Homo sapiens, UniProt Q16539). Briefly: P38 Alpha Enzyme Assay (AlphaScreen, biotinylated-ATF2 substrate).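 Further: 0.5 nM final p38α, reaction started with ATP and run 45 min at 37 °C, phospho-ATF2 read by antibody-based AlphaScreen, background wells quenched with EDTA before ATP.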 Format: biochemical. Particulars: p38 alpha enzyme inhibition; means of replicate determinations; 4 h pre-incubation at 37° C.; SD of assay 0.2-0.3 log units. Background: Alpha assays give light when donor and acceptor beads are brought close together.
Sequence of human active recombinant p38α-6His tagged (Q16539 whole entry): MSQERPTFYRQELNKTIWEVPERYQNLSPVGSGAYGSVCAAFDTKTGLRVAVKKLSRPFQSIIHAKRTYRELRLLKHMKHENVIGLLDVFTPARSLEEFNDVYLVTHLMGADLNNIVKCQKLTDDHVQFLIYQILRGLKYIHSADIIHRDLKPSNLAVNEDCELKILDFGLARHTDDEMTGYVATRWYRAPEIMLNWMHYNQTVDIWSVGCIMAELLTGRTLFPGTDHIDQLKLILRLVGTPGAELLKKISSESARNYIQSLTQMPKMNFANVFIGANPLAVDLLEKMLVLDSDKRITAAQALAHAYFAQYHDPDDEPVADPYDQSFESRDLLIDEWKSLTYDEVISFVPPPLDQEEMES

SMILES strings stand for the structures. Structures can show the parent of a compound that is named as a salt.

One may read the pIC50 as the IC50 on a negative log10 scale, so that one unit is a factor of ten.

In the case of `Cc1ccc(C(=O)NC2CC2)cc1-n1ccnc(N[C@H](c2ccccc2)C2CCNCC2)c1=O` [Example 103, N-Cyclopropyl-4-methyl-3-[2-oxo-3-[[(S)-phenyl-4-piperidinylmethyl]amino]-1(2H)-pyrazinyl]-benzamide trifluoroacetate], the pIC50 turned out to be 6.1.
`Cc1ccc(C(=O)NC2CC2)cc1-n1ccnc(NC2(c3ccccc3OCCNC(CO)CO)CC2)c1=O` [Example 294, N-Cyclopropyl-3-[3-({1-[2-(2-{[2-hydroxy-1-(hydroxymethyl)ethyl]amino}ethoxy)phenyl]cyclopropyl}amino)-2-oxopyrazin-1(2H)-yl]-4-methylbenzamide]: the pIC50 came out at 10.
Under `CCc1ccc(C(=O)NC2CC2)cc1-n1ccnc(NC(C)(C)c2ccccc2OCCN)c1=O` [Example 292, 3-[3-({1-[2-(2-Aminoethoxy)phenyl]-1-methylethyl}amino)-2-oxopyrazin-1(2H)-yl]-N-cyclopropyl-4-ethylbenzamide] stands 8.4; under `Cc1ccc(C(=O)NC2CC2)cc1-n1ccnc(N[C@@H](CO)c2ccccc2)c1=O` [Example 81, N-Cyclopropyl-3-[3-[[(1R)-2-hydroxy-1-phenylethyl]amino]-2-oxo-1(2H)-pyrazinyl]-4-methyl-benzamide], 6.3; under `CNC[C@@H](O)COc1ccccc1C(C)(C)Nc1nccn(-c2cc(C(=O)NC3CC3)cc(F)c2C)c1=O` [Example 307, N-Cyclopropyl-3-fluoro-5-[3-{[1-(2-{[(2R)-2-hydroxy-3-(methylamino)propyl]oxy}phenyl)-1-methylethyl]amino}-2-oxopyrazin-1(2H)-yl]-4-methylbenzamide], 10.3.
Under `CNCCCCOc1ccccc1C(C)(C)Nc1nccn(-c2cc(C(=O)NC3CC3)ccc2C)c1=O` [Example 204, N-Cyclopropyl-4-methyl-3-[3-[[1-methyl-1-[2-[4-(methylamino)butoxy]phenyl]ethyl]amino]-2-oxo-1(2H)-pyrazinyl]-benzamide] stands 9.8.
On to `Cc1cccc([C@H](Nc2nccn(-c3cc(C(=O)NC4CC4)ccc3C)c2=O)[C@@H](C)CN2CCCC2)c1` [Example 276, N-Cyclopropyl-3-[3-[[(1R,2S)-1-(3-methylphenyl)-2-methyl-3-(1-pyrrolidinyl)propyl]amino]-2-oxo-1(2H)-pyrazinyl]-4-methyl-benzamide], for which the pIC50 is 8.8.
`Cc1ccc(C(=O)NC2CC2)cc1-n1ccnc(N2CCN(C)CC2c2ccccc2)c1=O` (stereo not drawn) [Example 119, N-Cyclopropyl-4-methyl-3-[3-(4-methyl-2-phenyl-1-piperazinyl)-2-oxo-1(2H)-pyrazinyl]-benzamide]: the negative logarithm of the IC50 (pIC50) came out at 6.6.
Consider `COC[C@H]1CCCN1C[C@H](C)[C@@H](Nc1nccn(-c2cc(C(=O)NC3CC3)ccc2C)c1=O)c1ccccc1` [Example 147, N-Cyclopropyl-3-[3-[[(1R,2S)-3-[(2R)-2-(methoxymethyl)-1-pyrrolidinyl]-2-methyl-1-phenylpropyl]amino]-2-oxo-1(2H)-pyrazinyl]-4-methyl-benzamide], for which the pIC50 is listed as 9.
With `CNCCOc1ccccc1C(C)(C)Nc1nccn(-c2cc(C(=O)NC3CC3)cc(F)c2C)c1=O` [Example 169, N-Cyclopropyl-3-fluoro-4-methyl-5-[3-[[1-methyl-1-[2-[2-(methylamino)ethoxy]phenyl]ethyl]amino]-2-oxo-1(2H)-pyrazinyl]-benzamide], the pIC50 is on record as 9.9.
To `Cc1ccc(C(=O)NC2CC2)cc1-n1ccnc(N(CCN(C)C)Cc2ccccc2)c1=O` [Example 121, N-Cyclopropyl-3-[3-[[2-(dimethylamino)ethyl](phenylmethyl)amino]-2-oxo-1(2H)-pyrazinyl]-4-methyl-benzamide] belongs 6; to `Cc1ccc(C(=O)NC2CC2)cc1-n1ccnc(N[C@@H](c2ccccc2)[C@@H](C)CNC2CC2)c1=O` [Example 183, N-Cyclopropyl-3-[3-[[(1R,2S)-3-(cyclopropylamino)-2-methyl-1-phenylpropyl]amino]-2-oxo-1(2H)-pyrazinyl]-4-methyl-benzamide], 9; to `CNCCOc1ccccc1C(C)(C)Nc1nccn(-c2cc(C(=O)NOC)cc(F)c2C)c1=O` [Example 316, 3-Fluoro-N-methoxy-4-methyl-5-{3-[(1-methyl-1-{2-[2-(methylamino)ethoxyl]phenyl}ethyl)amino]-2-oxopyrazin-1(2H)-yl}benzamide], 10.4.
`CNCCOc1ccccc1C(C)(C)Nc1nccn(-c2cc(C(=O)NC3CCC3)ccc2C)c1=O` [Example 224, N-Cyclobutyl-4-methyl-3-[3-[[1-methyl-1-[2-[2-(methylamino)ethoxy]phenyl]ethyl]amino]-2-oxo-1(2H)-pyrazinyl]-benzamide]: the pIC50 came out at 8.4.
For `Cc1ccc(C(=O)NC2CC2)cc1-n1ccnc(NC2(c3ccccc3OCCN3CCC[C@H]3CO)CC2)c1=O` [Example 239, N-Cyclopropyl-3-[3-[[1-[2-[2-[(2S)-2-(hydroxymethyl)-1-pyrrolidinyl]ethoxy]phenyl]cyclopropyl]amino]-2-oxo-1(2H)-pyrazinyl]-4-methyl-benzamide], the pIC50 is 9.6.
For `Cc1c(F)cc(C(=O)NC2CC2)cc1-n1ccnc(NC2(c3ccccc3OCCNCCO)CC2)c1=O` [Example 260, N-Cyclopropyl-3-fluoro-5-[3-[[1-[2-[2-[(2-hydroxyethyl)amino]ethoxy]phenyl]cyclopropyl]amino]-2-oxo-1(2H)-pyrazinyl]-4-methyl-benzamide], the pIC50 amounted to 10.3.
To `CCNCCOc1ccccc1C(C)(C)Nc1nccn(-c2cc(C(=O)NC3CC3)ccc2Cl)c1=O` [Example 333, 4-Chloro-N-cyclopropyl-3-[3-[(1-{2-[2-(ethylamino)ethoxy]phenyl}-1-methylethyl)amino]-2-oxopyrazin-1(2H)-yl]benzamide] belongs 9.5; to `CNCCOc1ccccc1C(C)(C)Nc1nccn(-c2cc(C(=O)NC3CC3)ccc2Cl)c1=O` [Example 330, 4-Chloro-N-cyclopropyl-3-[3-[(1-methyl-1-{2-[2-(methylamino)ethoxy]phenyl}ethyl)amino]-2-oxopyrazin-1(2H)-yl]benzamide], 9.4.
Take `Cc1ccc(C(=O)NC2CC2)cc1-n1ccnc(NCc2ccc(S(C)(=O)=O)cc2)c1=O` [Example 25, N-Cyclopropyl-4-methyl-3-[3-[[[4-(methylsulfonyl)phenyl]methyl]amino]-2-oxo-1(2H)-pyrazinyl]-benzamide]: the pIC50 is 5.5.
To `Cc1c(F)cc(C(=O)NC2CC2)cc1-n1ccnc(NC(C)(C)c2ccccc2OCCNCC(C)(C)O)c1=O` [Example 257, N-Cyclopropyl-3-fluoro-5-[3-[[1-[2-[2-[(2-hydroxy-2-methylpropyl)amino]ethoxy]phenyl]-1-methylethyl]amino]-2-oxo-1(2H)-pyrazinyl]-4-methyl-benzamide] belongs 10.3; to `Cc1ccc(C(=O)NC2CC2)cc1-n1ccnc(NCCc2cccc(O)c2)c1=O` [Example 71, N-Cyclopropyl-3-[3-[[2-(3-hydroxyphenyl)ethyl]amino]-2-oxo-1(2H)-pyrazinyl]-4-methyl-benzamide], 6.8; to `Cc1ccc(C(=O)NC2CC2)cc1-n1ccnc(NC2(c3ccccc3OCCN3CCN(CCO)CC3)CC2)c1=O` [Example 232, N-Cyclopropyl-3-[3-[[1-[2-[2-[4-(2-hydroxyethyl)-1-piperazinyl]ethoxy]phenyl]cyclopropyl]amino]-2-oxo-1(2H)-pyrazinyl]-4-methyl-benzamide], 9.1.
`Cc1ccc(C(=O)NC2CC2)cc1-n1ccnc(NC2Cc3ccccc3C2)c1=O` [Example 64, N-Cyclopropyl-3-[3-[(2,3-dihydro-1H-inden-2-yl)amino]-2-oxo-1(2H)-pyrazinyl]-4-methyl-benzamide]: the pIC50 came out at 6.8.
To `Cc1ccc(C(=O)NC2CC2)cc1-n1cc(Cl)nc(N2CCN(C)CC2)c1=O` [Example 107, 3-[5-Chloro-3-(4-methyl-1-piperazinyl)-2-oxo-1(2H)-pyrazinyl]-N-cyclopropyl-4-methyl-benzamide] belongs 6.1.
For `Cc1ccc(C(=O)NC2CC2)cc1-n1ccnc(NC2(c3ccccc3OC[C@H](O)CNCCO)CC2)c1=O` [Example 299, N-Cyclopropyl-3-[3-({1-[2-({(2R)-2-hydroxy-3-[(2-hydroxyethyl)amino]propyl}oxy)phenyl]cyclopropyl}amino)-2-oxopyrazin-1(2H)-yl]-4-methylbenzamide], the pIC50 came out at 10.
To `Cc1ccc(C(=O)NC2CC2)cc1-n1ccnc(N2CCC(c3ccccc3)C2)c1=O` (stereo not drawn) [Example 54, N-Cyclopropyl-4-methyl-3-[2-oxo-3-(3-phenyl-1-pyrrolidinyl)-1(2H)-pyrazinyl]-benzamide] belongs 6.5; to `Cc1ccc(C(=O)NC2CC2)cc1-n1ccnc(N[C@@H](c2ccccc2)[C@@H](C)CN2CCC[C@@H](O)C2)c1=O` [Example 186, N-Cyclopropyl-3-[3-[[(1R,2S)-3-[(3R)-3-hydroxy-1-piperidinyl]-2-methyl-1-phenylpropyl]amino]-2-oxo-1(2H)-pyrazinyl]-4-methyl-benzamide], 9.
As for `Cc1ccc(C(=O)NC2CC2)cc1-n1ccnc(NC(C)(C)c2ccccc2OCCC2CCNCC2)c1=O` [Example 217, N-Cyclopropyl-4-methyl-3-[3-[[1-methyl-1-[2-[2-(4-piperidinyl)ethoxy]phenyl]ethyl]amino]-2-oxo-1(2H)-pyrazinyl]-benzamide], the pIC50 is 9.6.
Under `Cc1ccc(C(=O)NC2CC2)cc1-n1ccnc(NC(C)(C)c2ccccc2O)c1=O` [Example 134, N-Cyclopropyl-3-[3-[[1-(2-hydroxyphenyl)-1-methylethyl]amino]-2-oxo-1(2H)-pyrazinyl]-4-methyl-benzamide] stands 8.9.
Under `Cc1ccc(C(=O)NC2CC2)cc1-n1ccnc(NC2(c3ccccc3OCCNCCO)CCC2)c1=O` [Example 270, N-Cyclopropyl-3-[3-[[1-[2-[2-[(2-hydroxyethyl)amino]ethoxy]phenyl]cyclobutyl]amino]-2-oxo-1(2H)-pyrazinyl]-4-methyl-benzamide] stands 9.9.

These data come from patent US20120214822A1 (ASTRAZENECA AB, priority 2007, published 2012).
